The values below come from EP0970121B1, “PEPTIDE FRAGMENTS OF MYELIN BASIC PROTEIN, THEIR PHARMACEUTICAL COMPOSITIONS AND THEIR USE IN TREATING MULTIPLE SCLEROSIS” (The Governors of the University of Alberta, priority 1997, dated 1998).

“Also recorded” adds a separate entry of the source. Where no end group is shown, it is not given here.

Data set [1] relates to anti-MBP purified from CSF of MS patients. Put plainly: In vitro neutralization of purified anti-MBP (liquid phase assay, then solid phase radioimmunoassay). It counts as binding, human. Also on record: key to REACTIVITY WITH ANTI-MBP: + +: complete neutralization; +: partial neutralization; -: insignificant reactivity. The settings on record: for REACTIVITY WITH ANTI-MBP: purified anti-MBP, peptides 0-10.000 ng, h-MBP 0-1000 ng, 1.5 hours incubation; for neutralization of purified anti-MBP: pooled anti-MBP from 10 different MS patients, peptides up to 10.000 ng, MBP and negative antigen controls up to 1000 ng. As for the experimental part:
(§1) Constant amounts of anti-MBP (15 radioactivity binding units corresponding to 100 for scale expansion purposes = %0) were incubated with increasing amounts of h-MBP (0-1000 ng) or individual peptides of MBP (0-10.000 ng) in a liquid phase assay and after 1.5 hours incubation, free anti-MBP levels were determined in all mixtures. Anti-MBP isolated from 7 individual MS patients or pooled anti-MBP from 10 different MS patients were used in neutralization experiments. Calf thymus histone and human serum albumin were used as negative antigen controls (range: 10-1000 ng). One monoclonal antibody (MAb) to peptide MBP64-78 and a polyclonal rabbit antiserum to peptide MBP1-8 were used as positive antibody controls (Groome, N., Harland, J., and Dawkes, A., Neurochem Int 7:309-317, 1985, Barry, R., Payton. M., and Groome, N., Neurochem Int 2:291-300. 1991). Another mouse monoclonal antibody to epitope 45-50 was used as negative antibody control.
Anti-MBP levels were determined by a solid phase radioimmunoassay with human MBP (Warren, K.G. and Catz, I., Ann Neurol 209:20-25, 1986; Warren, K.G. and Catz, I., Ann Neurol 21:183-187, 1987; and Warren, K.G. and Catz, I., J Neurol Sci 91:143-151. 1989). Free anti-MBP levels were measured in all fractions from affinity chromatography and in all neutralization mixtures. All individual samples were run in quadruplicate using the same iodinated material in order to minimize between-assay variability.

The test system of data set [2] is MS patients. The data set is described as follows: Monitoring for adverse effects after peptide administration. It counts as in vivo, human. As for the experimental part:
After determining that peptide MBP75-95 neutralized F anti-MBP in vivo for periods in excess of 7 days, it was elected to repeatedly inoculate 10 mg MBP75-95 into the spinal fluid at weekly intervals for 10 weeks. This experiment was conducted, in 3 different patients with chronic progressive MS who have not participated in the single peptide injection project and volunteered for this study. F and B anti-MBP were determined 1-2 weeks prior to the first inoculation, prior to and 30 minutes following each of the 10 injections and again 1 month after the last injection. Cell counts, total protein, glucose, IgG and albumin levels were determined in all CSFs obtained before each of the 10 injections. Prior to the first and after the last injection blood was obtained and analyzed for electrolytes, creatinine, cardiac and liver enzymes and hematology panel.
Blood was obtained before injection as well as 16 and 30 days later and analyzed for electrolytes, creatinine, cardiac and liver enzymes and hematology panel. Spinal fluid was monitored for cell counts, total protein, glucose, IgG and albumin levels.

Data set [3] deals with polyclonal rabbit antiserum to peptide MBP1-8. Put plainly: Positive antibody control of the neutralization assay. It counts as binding. On the procedure: as §1
Data set [4] has as its system CSF anti-MBP. Put plainly: Intrathecal peptide administration, CSF anti-MBP by radioimmunoassay. It counts as in vivo, human. On the procedure:
Anti-MBP levels were determined by a solid phase radioimmunoassay with human MBP coated on Immulon microtiter wells. Immulon microtiter wells were coated with 100 µl of 10 µg/ml of MBP (1 µg/well) and incubated overnight at 37°C. After quenching with bovine serum albumin (BSA) and three water washes, the wells were stored at room temperature. Samples of 100 µl of CSF or tissue extracts diluted to 0.010 gm of IgG/l (with 0.01 M Barbitol Buffered Saline (BBS) pH 6.9-7.1. 0.5% BSA and 0.05% Tween 20) were incubated in MBP-coated wells for 1-2 hours at room temperature. After 5 buffer washes (with 0.01 M BBS, 0.5 BSA and 0.05% Tween 20), wells were incubated with goat anti-rabbit IgG-Fc specific (in 0.01 M BBS, 0.05% Tween 20, 0.5% BSA) for 1 hour at room temperature and then rinsed as above. Finally, ^125I-protein A (or ^125 I-protein G) was added and incubated for 1 hour at room temperature. When ^125I-protein G was used as a tracer, ovalbumin replaced BSA in assay buffer and for quenching. After three final water washes wells were individually counted. Results are expressed in radioactivity defined as: (counts of sample - counts of blank) ÷ (counts of total radioactivity - counts of blank). All samples are run in 10 replicate and counting time is 10 minutes in order to collect > 10,000 counts for any positive sample.
Prior to being assayed all CSF and/or tissue samples were diluted to a final IgG concentration of 0.010 g/l. F anti-MBP was detected directly in CSF or tissue extract while B levels of antibody were determined following acid hydrolysis of immune complexes with glycine HCl buffer pH 2.2. Non-specific binding was performed for each sample in uncoated wells. For epitope localization, synthetic peptides were firstly reacted with purified antibody in a liquid phase competitive assay and then anti-MBP was determined by radioimmunoassay in all resulting supernatants. Results of the combined competitive binding assay and radioimmunoassay were expressed as percent inhibition of synthetic peptide defined as 100 - radioactivity units. Samples were done in 10 replicates and counted for 10 minutes each in a LKB1275 Minigamma counter. […]
A Phase 1 experiment to determine the effect of synthetic peptide MBP75-95 on F and B titers of CSF anti-MBP was conducted. […] 14 patients volunteered for this study: eight patients were selected on the basis of their initial titre of F CSF anti-MBP (above 8 radioactivity units) (Table 2) to receive one intrathecal injection of either peptide MBP75-95 which bound anti-MBP in vitro or a non-binding control peptide MBP35-58 (Warren and Catz, 1993b). […] Cell counts, total protein, glucose, IgG and albumin levels were determined in all CSF samples obtained. F and B anti-MBP levels were determined by radioimmunoassay, as described above. […]

In data set [5] the test system is F and B anti-MBP purified by affinity chromatography from CSF and MS brain tissue. The data set is described as follows: Competitive inhibition assay with decapeptides (MBP epitope localization). The settings on record: purified F and B anti-MBP from MS brain tissue (Fig. 10); percent inhibition = 100 - radioactivity units. It is filed as binding, human. As for the experimental part: Prior to being assayed all CSF and/or tissue samples were diluted to a final IgG concentration of 0.010 g/l. F anti-MBP was detected directly in CSF or tissue extract while B levels of antibody were determined following acid hydrolysis of immune complexes with glycine HCl buffer pH 2.2. Non-specific binding was performed for each sample in uncoated wells. For epitope localization, synthetic peptides were firstly reacted with purified antibody in a liquid phase competitive assay and then anti-MBP was determined by radioimmunoassay in all resulting supernatants. Results of the combined competitive binding assay and radioimmunoassay were expressed as percent inhibition of synthetic peptide defined as 100 - radioactivity units. Samples were done in 10 replicates and counted for 10 minutes each in a LKB1275 Minigamma counter. A pool of tissue-purified anti-MBP was used at 5 pre-established dilutions as positive controls. Pooled CSF from patients with non-neurological diseases was used as negative controls. Within assay reproducibility was between 3 and 5% and between assay variation was less than 7 %.
The peptide(s) producing maximum inhibition were considered to be most highly associated with the antibody binding site.

Data set [6] can be described thus: Solubility in normal saline.

As for “18-32: synthetic peptide of human MBP sequence 18-32 (NSETNRGESEKKRNL; UniProt P02686 18-32, looked up, fragment)”, in data set [1], the “REACTIVITY WITH ANTI-MBP” value is on record as “-”.
As to “26 - 40: synthetic peptide of human MBP sequence 26-40 (SEKKRNLGELSRTTS; UniProt P02686 26-40, looked up, fragment)”, in data set [1], the “REACTIVITY WITH ANTI-MBP” value was “-”.
On the same count and under the same terms, the value for “117 - 129: synthetic peptide of human MBP sequence 117-129 (LQTIQEDSAATSE; UniProt P02686 117-129, looked up, fragment)” was “-”; that for “141 - 155: synthetic peptide of human MBP sequence 141-155 (SQRHGSKYLATASTM; UniProt P02686 141-155, looked up, fragment)” was “-”; that for “Cy 4 - 18: synthetic peptide of human MBP sequence 4-18 with cysteine (HAGKRELNAEKASTN; also: added cysteine, end not given here; UniProt P02686 4-18, looked up, fragment)” was “-”.
Same read-out and setting: the value for “Cy 11 - 24: synthetic peptide of human MBP sequence 11-24 with cysteine (NAEKASTNSETNRG; also: added cysteine, end not given here; UniProt P02686 11-24, looked up, fragment)” was “-”; that for “Cy 51 - 64 Gly: synthetic peptide of human MBP sequence 51-64 with cysteine and Gly (ANQNNGTSSQDTAV; also: added cysteine and glycine, ends not given here; UniProt P02686 51-64, looked up, fragment)” was “+”.
Still for that read-out and setting: the value for “Cy 127 - 140: synthetic peptide of human MBP sequence 127-140 with cysteine (TSESLDVMASQKRP; also: added cysteine, end not given here; UniProt P02686 127-140, looked up, fragment)” was “-”; that for “Cy 136 - 149: synthetic peptide of human MBP sequence 136-149 with cysteine (SQKRPSQRHGSKYL; also: added cysteine, end not given here; UniProt P02686 136-149, looked up, fragment)” was “-”.
With HHPARTAHYGSLPQK [MBP61-75], in data set [1], the “neutralization of purified anti-MBP” value was “partially neutralized” and the “REACTIVITY WITH ANTI-MBP” value is “+”.
KSHGRTQDENPVVHFFKNIVT [MBP75-95]: in data set [2] (500 mg intravenously over 30 minutes, patient 8M41), the adverse effects result is “No adverse effects were observed”. In data set [2] (repeated intrathecal inoculations, electrolytes, cardiac-liver-kidney function, hematology), the “adverse effects / systemic complications” value is given as “no adverse complications have occurred”.
For “MBP1-8: synthetic peptide of human MBP sequence 1-8 with cysteine (MGNHAGKR; also: added cysteine, end not given here; UniProt P02686 1-8, looked up, fragment)”, the “REACTIVITY WITH ANTI-MBP” value in data set [1] is recorded as “-”. Further, the “inhibition of MAb to peptide MBP 1-8” value in data set [3] was “inhibited”.
Regarding “MBP35-58: non-binding, control synthetic peptide of human MBP residues 35-58 (LSRTTSEDNEVFGEADANQNNGTS; also: added cysteine, end not given here; UniProt P02686 35-58, looked up, fragment)”, in data set [1], the “REACTIVITY WITH ANTI-MBP” value was “-”. Besides, the “F and B levels of CSF anti-MBP” value in data set [4] (one intrathecal injection of 1, 2.5, 5 and 10 mg, 24 hour experiment) is “remained unaffected; also recorded: remained unchanged”. Also, the “F anti-MBP in CSF” value in data set [4] (one intrathecal injection, 5 mg) is reported as “remained elevated at baseline level”; in data set [4] (one intrathecal injection, 10 mg) it was “persistently elevated”. In data set [4] (one intrathecal injection, increasing amounts 1, 2.5, 5 and 10 mg), the “CSF F anti-MBP over increasing doses” value is on record as “did not react”.
In the case of “MBP51 -60: decapeptide of human MBP residues 51-60, negative control (ANQNNGTSSQ; UniProt P02686 51-60, looked up, fragment)”, the “percent inhibition of both F and B anti-MBP” value in data set [5] is on record as 0-10%.
Still for that read-out and setting: the value for “MBP 111 -120: decapeptide of human MBP residues 111-120, negative control (PSESDELQTI; UniProt P02686 111-120, looked up, fragment)” was 0-10%.
Take “Thr Gln Asp Glu Asn Pro Val Val His Phe Phe Lys Asn Ile Val Thr Pro Arg (TQDENPVVHFFKNIVTPR; printed: Thr Gln Asp Glu Asn Pro Val Val His Phe Phe Lys Asn Ile Val Thr Pro Arg) [MBP80-97]”: the “neutralization of anti-MBP purified from 7 individual MS patients” value in data set [1] (anti-MBP of individual patients) was “completely neutralized”. In data set [1], the “neutralization of purified anti-MBP” value was “completely neutralized” and the “REACTIVITY WITH ANTI-MBP” value is recorded as “+ +”. In addition, the “times less effective on a molar basis than intact MBP at causing inhibition” value in data set [1] (relative to intact MBP) was “approximately 100 times”.
On to “VVHFFKNIVT [MBP86-95, Val Val His Phe Phe Lys Asn Ile Val Thr]”, for which, in data set [6], the solubility entry is “very low solubility”.
